Measured values from ChEMBL document CHEMBL3046846, “Synthesis of N-Alkyl-2, 3-dimethyl-5-[N-(5-halo-2-methylphenyl)carbamoyl]-6-pyrazinecarboxamides and Their Herbicidal Activity” (J Pestic Sci, 1997).

Test system: Xanthium strumarium
Test: Herbicidal activity against Xanthium strumarium (cocklebur) 5000 g/ha after 2 weeks
Assay type: functional
Details: not given

| SMILES | Activity |
| --- | --- |
| Cc1ccc(F)cc1NC(=O)c1nc(C)c(C)nc1C(=O)NCC(C)C | 95% |

Test system: Veronica persica
Test: Herbicidal activity against Veronica persica at 140 g/ha after 2 weeks
Assay type: functional
Details: not given

| SMILES | Activity |
| --- | --- |
| CC(C)C1(C)N=C(c2nc3ccccc3cc2C(=O)O)NC1=O (stereo not given) [IMAZAQUIN] | 50% |

Test system: Glycine max
Test: Herbicidal activity against Glycine max (soybean) at 5000 g/ha after 2 weeks
Assay type: organism-based
Details: in vivo, 336 h

| SMILES | Activity |
| --- | --- |
| Cc1ccc(F)cc1NC(=O)c1nc(C)c(C)nc1C(=O)NCC(C)C | < 10% |

Test system: Glycine max
Test: Herbicidal activity against Glycine max (soybean) at 140 g/ha after 2 weeks
Assay type: organism-based
Details: in vivo, 336 h

| SMILES | Activity |
| --- | --- |
| CC(C)C1(C)N=C(c2nc3ccccc3cc2C(=O)O)NC1=O (stereo not given) [IMAZAQUIN] | < 10% |

Test system: Triticum aestivum
Test: Herbicidal activity against Triticum aestivum (wheat) at 140 g/ha after 2 weeks
Assay type: organism-based
Details: in vivo, 336 h

| SMILES | Activity |
| --- | --- |
| CC(C)C1(C)N=C(c2nc3ccccc3cc2C(=O)O)NC1=O (stereo not given) [IMAZAQUIN] | 70% |

Test system: Veronica persica
Test: Herbicidal activity against Veronica persica at 250 g/ha after 2 weeks
Assay type: functional
Details: not given

| SMILES | Activity |
| --- | --- |
| Cc1ccc(F)cc1NC(=O)c1nc(C)c(C)nc1C(=O)NCC(C)C | 95% |

Test system: Avena fatua
Test: Herbicidal activity against Avena fatua at 200 g/ha after 2 weeks
Assay type: functional
Details: not given

| SMILES | Activity |
| --- | --- |
| CS(=O)(=O)NC(=O)c1cc(Oc2ccc(C(F)(F)F)cc2Cl)ccc1[N+](=O)[O-] [FOMESAFEN] | <10% |

Test system: Abutilon theophrasti
Test: Herbicidal activity against Abutilon theophrasti (velvetleaf) at 200 g/ha after 2 weeks
Assay type: functional
Details: not given

| SMILES | Activity |
| --- | --- |
| CS(=O)(=O)NC(=O)c1cc(Oc2ccc(C(F)(F)F)cc2Cl)ccc1[N+](=O)[O-] [FOMESAFEN] | 95% |

Test system: Galium spurium
Test: Herbicidal activity against Galium spurium var. echinospermon (Wally.) Hayek at 140 g/ha after 2 weeks
Assay type: functional
Details: not given

| SMILES | Activity |
| --- | --- |
| CC(C)C1(C)N=C(c2nc3ccccc3cc2C(=O)O)NC1=O (stereo not given) [IMAZAQUIN] | 70% |

Test system: Triticum aestivum
Test: Herbicidal activity against Triticum aestivum (wheat) at 500 g/ha after 2 weeks
Assay type: ADME, organism-based
Details: in vivo, 336 h

| SMILES | Activity |
| --- | --- |
| Cc1ccc(F)cc1NC(=O)c1nc(C)c(C)nc1C(=O)NCC(C)C | 10% |

Test system: Triticum aestivum
Test: Herbicidal activity against Triticum aestivum (wheat) at 200 g/ha after 2 weeks
Assay type: organism-based
Details: in vivo, 336 h

| SMILES | Activity |
| --- | --- |
| CS(=O)(=O)NC(=O)c1cc(Oc2ccc(C(F)(F)F)cc2Cl)ccc1[N+](=O)[O-] [FOMESAFEN] | 30% |

Test system: Triticum aestivum
Test: Herbicidal activity against Triticum aestivum (wheat) at 250 g/ha after 2 weeks
Assay type: organism-based
Details: in vivo, 336 h

| SMILES | Activity |
| --- | --- |
| Cc1ccc(F)cc1NC(=O)c1nc(C)c(C)nc1C(=O)NCC(C)C | 10% |

Test system: Echinochloa crus-galli
Test: Herbicidal activity against Echinochloa crus-galli (barnyard grass) at 500 g/ha after 2 weeks
Assay type: functional
Details: not given

| SMILES | Activity |
| --- | --- |
| Cc1ccc(F)cc1NC(=O)c1nc(C)c(C)nc1C(=O)NCC(C)C | <10% |

Test system: Echinochloa crus-galli
Test: Herbicidal activity against Echinochloa crus-galli (barnyard grass) at 5000 g/ha after 2 weeks
Assay type: functional
Details: not given

| SMILES | Activity |
| --- | --- |
| Cc1ccc(F)cc1NC(=O)c1nc(C)c(C)nc1C(=O)NCC(C)C | 30% |

Test system: Avena fatua
Test: Herbicidal activity against Avena fatua at 250 g/ha after 2 weeks
Assay type: functional
Details: not given

| SMILES | Activity |
| --- | --- |
| Cc1ccc(F)cc1NC(=O)c1nc(C)c(C)nc1C(=O)NCC(C)C | <10% |

Test system: Abutilon theophrasti
Test: Herbicidal activity against Abutilon theophrasti (velvetleaf) at 140 g/ha after 2 weeks
Assay type: functional
Details: not given

| SMILES | Activity |
| --- | --- |
| CC(C)C1(C)N=C(c2nc3ccccc3cc2C(=O)O)NC1=O (stereo not given) [IMAZAQUIN] | 30% |

Test system: Veronica persica
Test: Herbicidal activity against Veronica persica at 5000 g/ha after 2 weeks
Assay type: functional
Details: not given

| SMILES | Activity |
| --- | --- |
| Cc1ccc(F)cc1NC(=O)c1nc(C)c(C)nc1C(=O)NCC(C)C | 95% |

Test system: Glycine max
Test: Herbicidal activity against Glycine max (soybean) at 200 g/ha after 2 weeks
Assay type: organism-based
Details: in vivo, 336 h

| SMILES | Activity |
| --- | --- |
| CS(=O)(=O)NC(=O)c1cc(Oc2ccc(C(F)(F)F)cc2Cl)ccc1[N+](=O)[O-] [FOMESAFEN] | < 10% |

Test system: Galium spurium
Test: Herbicidal activity against Galium spurium var. echinospermon (Wally.) Hayek at 250 g/ha after 2 weeks
Assay type: functional
Details: not given

| SMILES | Activity |
| --- | --- |
| Cc1ccc(F)cc1NC(=O)c1nc(C)c(C)nc1C(=O)NCC(C)C | <10% |

Test system: Avena fatua
Test: Herbicidal activity against Avena fatua at 140 g/ha after 2 weeks
Assay type: functional
Details: not given

| SMILES | Activity |
| --- | --- |
| CC(C)C1(C)N=C(c2nc3ccccc3cc2C(=O)O)NC1=O (stereo not given) [IMAZAQUIN] | 50% |

Test system: Veronica persica
Test: Herbicidal activity against Veronica persica at 200 g/ha after 2 weeks
Assay type: functional
Details: not given

| SMILES | Activity |
| --- | --- |
| CS(=O)(=O)NC(=O)c1cc(Oc2ccc(C(F)(F)F)cc2Cl)ccc1[N+](=O)[O-] [FOMESAFEN] | 95% |

Test system: Veronica persica
Test: Herbicidal activity against Veronica persica at 500 g/ha after 2 weeks
Assay type: functional
Details: not given

| SMILES | Activity |
| --- | --- |
| Cc1ccc(F)cc1NC(=O)c1nc(C)c(C)nc1C(=O)NCC(C)C | 95% |

Test system: Abutilon theophrasti
Test: Herbicidal activity against Abutilon theophrasti (velvetleaf) at 250 g/ha after 2 weeks
Assay type: functional
Details: not given

| SMILES | Activity |
| --- | --- |
| Cc1ccc(F)cc1NC(=O)c1nc(C)c(C)nc1C(=O)NCC(C)C | 30% |

Test system: Galium spurium
Test: Herbicidal activity against Galium spurium var. echinospermon (Wally.) Hayek at 5000 g/ha after 2 weeks
Assay type: functional
Details: not given

| SMILES | Activity |
| --- | --- |
| Cc1ccc(F)cc1NC(=O)c1nc(C)c(C)nc1C(=O)NCC(C)C | 30% |

Test system: Echinochloa crus-galli
Test: Herbicidal activity against Echinochloa crus-galli (barnyard grass) at 200 g/ha after 2 weeks
Assay type: functional
Details: not given

| SMILES | Activity |
| --- | --- |
| CS(=O)(=O)NC(=O)c1cc(Oc2ccc(C(F)(F)F)cc2Cl)ccc1[N+](=O)[O-] [FOMESAFEN] | 30% |

Test system: Glycine max
Test: Herbicidal activity against Glycine max (soybean) at 250 g/ha after 2 weeks
Assay type: organism-based
Details: in vivo, 336 h

| SMILES | Activity |
| --- | --- |
| Cc1ccc(F)cc1NC(=O)c1nc(C)c(C)nc1C(=O)NCC(C)C | < 10% |

Test system: Xanthium strumarium
Test: Herbicidal activity against Xanthium strumarium (cocklebur) 250 g/ha after 2 weeks
Assay type: functional
Details: not given

| SMILES | Activity |
| --- | --- |
| Cc1ccc(F)cc1NC(=O)c1nc(C)c(C)nc1C(=O)NCC(C)C | <10% |

Test system: Xanthium strumarium
Test: Herbicidal activity against Xanthium strumarium (cocklebur) 200 g/ha after 2 weeks
Assay type: functional
Details: not given

| SMILES | Activity |
| --- | --- |
| CS(=O)(=O)NC(=O)c1cc(Oc2ccc(C(F)(F)F)cc2Cl)ccc1[N+](=O)[O-] [FOMESAFEN] | 50% |

Test system: Echinochloa crus-galli
Test: Herbicidal activity against Echinochloa crus-galli (barnyard grass) at 250 g/ha after 2 weeks
Assay type: functional
Details: not given

| SMILES | Activity |
| --- | --- |
| Cc1ccc(F)cc1NC(=O)c1nc(C)c(C)nc1C(=O)NCC(C)C | <10% |

Test system: Xanthium strumarium
Test: Herbicidal activity against Xanthium strumarium (cocklebur) 500 g/ha after 2 weeks
Assay type: functional
Details: not given

| SMILES | Activity |
| --- | --- |
| Cc1ccc(F)cc1NC(=O)c1nc(C)c(C)nc1C(=O)NCC(C)C | 95% |

Test system: Glycine max
Test: Herbicidal activity against Glycine max (soybean) at 500 g/ha after 2 weeks
Assay type: organism-based
Details: in vivo, 336 h

| SMILES | Activity |
| --- | --- |
| Cc1ccc(F)cc1NC(=O)c1nc(C)c(C)nc1C(=O)NCC(C)C | < 10% |

Test system: Triticum aestivum
Test: Herbicidal activity against Triticum aestivum (wheat) at 5000 g/ha after 2 weeks
Assay type: ADME, organism-based
Details: in vivo, 336 h

| SMILES | Activity |
| --- | --- |
| Cc1ccc(F)cc1NC(=O)c1nc(C)c(C)nc1C(=O)NCC(C)C | 30% |

Test system: Galium spurium
Test: Herbicidal activity against Galium spurium var. echinospermon (Wally.) Hayek at 200 g/ha after 2 weeks
Assay type: functional
Details: not given

| SMILES | Activity |
| --- | --- |
| CS(=O)(=O)NC(=O)c1cc(Oc2ccc(C(F)(F)F)cc2Cl)ccc1[N+](=O)[O-] [FOMESAFEN] | 70% |

Test system: Galium spurium
Test: Herbicidal activity against Galium spurium var. echinospermon (Wally.) Hayek at 500 g/ha after 2 weeks
Assay type: functional
Details: not given

| SMILES | Activity |
| --- | --- |
| Cc1ccc(F)cc1NC(=O)c1nc(C)c(C)nc1C(=O)NCC(C)C | <10% |

Test system: Echinochloa crus-galli
Test: Herbicidal activity against Echinochloa crus-galli (barnyard grass) at 140 g/ha after 2 weeks
Assay type: functional
Details: not given

| SMILES | Activity |
| --- | --- |
| CC(C)C1(C)N=C(c2nc3ccccc3cc2C(=O)O)NC1=O (stereo not given) [IMAZAQUIN] | 30% |

Test system: Xanthium strumarium
Test: Herbicidal activity against Xanthium strumarium (cocklebur) 140 g/ha after 2 weeks
Assay type: functional
Details: not given

| SMILES | Activity |
| --- | --- |
| CC(C)C1(C)N=C(c2nc3ccccc3cc2C(=O)O)NC1=O (stereo not given) [IMAZAQUIN] | 95% |

Test system: Abutilon theophrasti
Test: Herbicidal activity against Abutilon theophrasti (velvetleaf) at 500 g/ha after 2 weeks
Assay type: functional
Details: not given

| SMILES | Activity |
| --- | --- |
| Cc1ccc(F)cc1NC(=O)c1nc(C)c(C)nc1C(=O)NCC(C)C | 70% |

Test system: Abutilon theophrasti
Test: Herbicidal activity against Abutilon theophrasti (velvetleaf) at 5000 g/ha after 2 weeks
Assay type: functional
Details: not given

| SMILES | Activity |
| --- | --- |
| Cc1ccc(F)cc1NC(=O)c1nc(C)c(C)nc1C(=O)NCC(C)C | 95% |

Test system: Avena fatua
Test: Herbicidal activity against Avena fatua at 500 g/ha after 2 weeks
Assay type: functional
Details: not given

| SMILES | Activity |
| --- | --- |
| Cc1ccc(F)cc1NC(=O)c1nc(C)c(C)nc1C(=O)NCC(C)C | 10% |

Test system: Avena fatua
Test: Herbicidal activity against Avena fatua at 5000 g/ha after 2 weeks
Assay type: functional
Details: not given

| SMILES | Activity |
| --- | --- |
| Cc1ccc(F)cc1NC(=O)c1nc(C)c(C)nc1C(=O)NCC(C)C | 50% |
